Data: patent US7696129B2, “Substituted aromatic amide derivative, intermediate thereof, agrohorticultural insecticide containing thereof and method for the use thereof” (Nihon Nohyaku Co., Ltd., priority 2001, dated 2010)

Tests used:
Assay type in all cases: in vivo
[1] = test system: Common Cutworm (Spodoptera litura); experiment: Test Example 2: insecticidal effect on common cutworm, cabbage leaf immersion; conditions: 50 ppm, cabbage leaf immersed about 30 seconds, second-instar larvae, 25° C., eight days after the inoculation
Source text: Insecticidal Effect on Common Cutworm (Spodoptera litura)
A piece of cabbage leaf (cultivar; Shikidori) was immersed for about 30 seconds in a liquid chemical prepared by diluting a preparation containing each compound listed in Tables 4 to 9 as an active ingredient to adjust the concentration to 50 ppm. After air-dryness, it was placed in a plastic Petri dish with a diameter of 9 cm and inoculated with second-instar larvae of common cutworm, after which the dish was closed and then allowed to stand in a room thermostatted at 25° C. Eight days after the inoculation, the dead and alive were counted. The mortality was calculated according to the following equation and the insecticidal effect was judged according to the criterion shown in Test Example 1. The test was carried out with triplicate groups of 10 insects.

[2] = test system: Smaller Tea Tortrix (Adxophyes sp.); experiment: Test Example 3: insecticidal effect on smaller tea tortrix, tea leaf immersion; conditions: 50 ppm, tea leaves immersed about 30 seconds, larvae, 25° C., humidity 70%, eight days after the inoculation
Description: Insecticidal Effect on Smaller Tea Tortrix (Adxophyes sp.)
Tea leaves were immersed for about 30 seconds in a liquid chemical prepared by diluting a preparation containing each compound listed in Tables 1 to 3 as an active ingredient to adjust the concentration to 50 ppm. After air-dryness, the tea leaves were placed in a plastic Petri dish with a diameter of 9 cm and inoculated with larvae of smaller tea tortrix, after which the dish was allowed to stand in a room thermostatted at 25° C. and having a humidity of 70%. Eight days after the inoculation, the dead and alive were counted and the insecticidal effect was judged according to the criterion shown in Test Example 1. The test was carried out with triplicate groups of 10 insects.

[3] = test system: Diamond Back Moth (Plutella xylostella); experiment: Test Example 1: insecticidal effect on diamond back moth, immersion of Chinese cabbage seedling with eggs; conditions: 50 ppm, seedling with eggs immersed about 30 seconds, 25° C., six days after the immersion
Source text: Insecticidal Effect on Diamond Back Moth (Plutella xylostella)
Adult diamond back moths were released and allowed to oviposit on a Chinese cabbage seedling. Two days after the release, the seedling having the eggs deposited thereon was immersed for about 30 seconds in a liquid chemical prepared by diluting a preparation containing each compound listed in Tables 4 to 9 as an active ingredient to adjust the concentration to 50 ppm. After air-dryness, it was allowed to stand in a room thermostatted at 25° C. Six days after the immersion, the hatched insects were counted. The mortality was calculated according to the following equation and the insecticidal effect was judged according to the criterion shown below. The test was carried out with triplicate groups of 10 insects.

C[S+]([O-])CC(C)(C)NC(=O)c1c(I)cccc1C(=O)Nc1ccc(C(C(F)(F)F)C(F)(F)F)cc1C#N (stereo not drawn) [5-58]
Test Example 2 (insecticidal effect, mortality criterion) [1]: A (Mortality 100%) | Test Example 3 (insecticidal effect, mortality criterion) [2]: A (Mortality 100%) | Test Example 1 (insecticidal effect, mortality criterion) [3]: A (Mortality 100%)

CC(C)(CS(C)(=O)=O)NC(=O)c1c(I)cccc1C(=O)Nc1ccc(C(C(F)(F)F)C(F)(F)F)cc1C#N [5-59]
Test Example 2 (insecticidal effect, mortality criterion) [1]: A (Mortality 100%) | Test Example 3 (insecticidal effect, mortality criterion) [2]: A (Mortality 100%) | Test Example 1 (insecticidal effect, mortality criterion) [3]: A (Mortality 100%)

Cc1c(NC(=O)c2cccc(I)c2C(=O)NC(C)C)ccc(C(C(F)(F)F)C(F)(F)F)c1F [5-60]
Test Example 2 (insecticidal effect, mortality criterion) [1]: A (Mortality 100%) | Test Example 3 (insecticidal effect, mortality criterion) [2]: A (Mortality 100%) | Test Example 1 (insecticidal effect, mortality criterion) [3]: A (Mortality 100%)

CSCC(C)(C)NC(=O)c1c(I)cccc1C(=O)Nc1ccc(C(C(F)(F)F)C(F)(F)F)c(F)c1C [5-61]
Test Example 2 (insecticidal effect, mortality criterion) [1]: A (Mortality 100%) | Test Example 3 (insecticidal effect, mortality criterion) [2]: A (Mortality 100%) | Test Example 1 (insecticidal effect, mortality criterion) [3]: A (Mortality 100%)

Cc1cc(C(C(F)(F)F)C(F)(F)F)c(F)cc1NC(=O)c1cccc(I)c1C(=O)NC(C)C [5-62]
Test Example 2 (insecticidal effect, mortality criterion) [1]: A (Mortality 100%) | Test Example 3 (insecticidal effect, mortality criterion) [2]: A (Mortality 100%) | Test Example 1 (insecticidal effect, mortality criterion) [3]: A (Mortality 100%)

CSCC(C)(C)NC(=O)c1c(I)cccc1C(=O)Nc1cc(F)c(C(C(F)(F)F)C(F)(F)F)cc1C [5-63]
Test Example 2 (insecticidal effect, mortality criterion) [1]: A (Mortality 100%) | Test Example 3 (insecticidal effect, mortality criterion) [2]: A (Mortality 100%) | Test Example 1 (insecticidal effect, mortality criterion) [3]: A (Mortality 100%)

CSCC(C)(C)NC(=O)c1c(I)cccc1C(=O)Nc1ccc(C(C(F)(F)F)C(F)(F)F)c(Cl)c1C [5-66]
Test Example 2 (insecticidal effect, mortality criterion) [1]: A (Mortality 100%) | Test Example 3 (insecticidal effect, mortality criterion) [2]: A (Mortality 100%) | Test Example 1 (insecticidal effect, mortality criterion) [3]: A (Mortality 100%)

Cc1cc(C(C(F)(F)F)C(F)(F)F)cc(C)c1NC(=O)c1cccc(I)c1C(=O)NC(C)C [5-67]
Test Example 2 (insecticidal effect, mortality criterion) [1]: E (Mortality 49% or less) | Test Example 3 (insecticidal effect, mortality criterion) [2]: A (Mortality 100%) | Test Example 1 (insecticidal effect, mortality criterion) [3]: A (Mortality 100%)

CSCC(C)(C)NC(=O)c1c(I)cccc1C(=O)Nc1c(C)cc(C(C(F)(F)F)C(F)(F)F)cc1C [5-68]
Test Example 2 (insecticidal effect, mortality criterion) [1]: E (Mortality 49% or less) | Test Example 3 (insecticidal effect, mortality criterion) [2]: E (Mortality 49% or less) | Test Example 1 (insecticidal effect, mortality criterion) [3]: A (Mortality 100%)

CSCC(C)(C)NC(=O)c1c(I)cccc1C(=O)Nc1ccc(C(C(F)(F)F)C(F)(F)F)c(OC(C)C)c1 [5-70]
Test Example 2 (insecticidal effect, mortality criterion) [1]: E (Mortality 49% or less) | Test Example 3 (insecticidal effect, mortality criterion) [2]: E (Mortality 49% or less) | Test Example 1 (insecticidal effect, mortality criterion) [3]: A (Mortality 100%)

CSCC(C)(C)NC(=O)c1c(I)cccc1C(=O)Nc1ccc(C(C(F)(F)F)C(F)(F)C(F)(F)F)cc1C (stereo not drawn) [5-71]
Test Example 2 (insecticidal effect, mortality criterion) [1]: A (Mortality 100%) | Test Example 3 (insecticidal effect, mortality criterion) [2]: A (Mortality 100%) | Test Example 1 (insecticidal effect, mortality criterion) [3]: A (Mortality 100%)

CCN(CC)C(=O)c1c(I)cccc1C(=O)Nc1ccc(C(C(F)(F)F)C(F)(F)F)cc1C [6-1]
Test Example 2 (insecticidal effect, mortality criterion) [1]: A (Mortality 100%) | Test Example 3 (insecticidal effect, mortality criterion) [2]: A (Mortality 100%) | Test Example 1 (insecticidal effect, mortality criterion) [3]: A (Mortality 100%)

Cc1cc(C(C(F)(F)F)C(F)(F)F)ccc1N(C)C(=O)c1cccc(I)c1C(=O)NC(C)C [6-2]
Test Example 2 (insecticidal effect, mortality criterion) [1]: E (Mortality 49% or less) | Test Example 3 (insecticidal effect, mortality criterion) [2]: A (Mortality 100%) | Test Example 1 (insecticidal effect, mortality criterion) [3]: A (Mortality 100%)

CSCC(C)(C)NC(=O)c1c(I)cccc1C(=O)N(C)c1ccc(C(C(F)(F)F)C(F)(F)F)cc1C [6-3]
Test Example 2 (insecticidal effect, mortality criterion) [1]: A (Mortality 100%) | Test Example 3 (insecticidal effect, mortality criterion) [2]: A (Mortality 100%) | Test Example 1 (insecticidal effect, mortality criterion) [3]: A (Mortality 100%)

Cc1cc(C(C(F)(F)F)C(F)(F)F)ccc1NC(=O)c1ncccc1C(=O)NC(C)C [7-1]
Test Example 2 (insecticidal effect, mortality criterion) [1]: E (Mortality 49% or less) | Test Example 3 (insecticidal effect, mortality criterion) [2]: A (Mortality 100%) | Test Example 1 (insecticidal effect, mortality criterion) [3]: A (Mortality 100%)

CSCC(C)(C)NC(=O)c1c(I)cccc1C(=O)Nc1ccc(C(C(F)(F)F)C(F)(F)F)nc1 [8-1]
Test Example 2 (insecticidal effect, mortality criterion) [1]: C (Mortality 89-80%) | Test Example 3 (insecticidal effect, mortality criterion) [2]: E (Mortality 49% or less) | Test Example 1 (insecticidal effect, mortality criterion) [3]: A (Mortality 100%)

C[S+]([O-])CC(C)(C)NC(=O)c1c(I)cccc1C(=O)Nc1ccc(C(C(F)(F)F)C(F)(F)F)nc1 (stereo not drawn) [8-2]
Test Example 2 (insecticidal effect, mortality criterion) [1]: E (Mortality 49% or less) | Test Example 3 (insecticidal effect, mortality criterion) [2]: E (Mortality 49% or less) | Test Example 1 (insecticidal effect, mortality criterion) [3]: A (Mortality 100%)

CC(C)(CS(C)(=O)=O)NC(=O)c1c(I)cccc1C(=O)Nc1ccc(C(C(F)(F)F)C(F)(F)F)nc1 [8-3]
Test Example 2 (insecticidal effect, mortality criterion) [1]: E (Mortality 49% or less) | Test Example 3 (insecticidal effect, mortality criterion) [2]: A (Mortality 100%) | Test Example 1 (insecticidal effect, mortality criterion) [3]: A (Mortality 100%)

C[S+]([O-])CC(C)(C)NC(=O)c1c(I)cccc1C(=O)Nc1ccc(C(C(F)(F)F)C(F)(F)F)nc1Cl (stereo not drawn) [8-5]
Test Example 2 (insecticidal effect, mortality criterion) [1]: A (Mortality 100%) | Test Example 3 (insecticidal effect, mortality criterion) [2]: A (Mortality 100%) | Test Example 1 (insecticidal effect, mortality criterion) [3]: A (Mortality 100%)

CC(C)(CS(C)(=O)=O)NC(=O)c1c(I)cccc1C(=O)Nc1ccc(C(C(F)(F)F)C(F)(F)F)nc1Cl [8-6]
Test Example 2 (insecticidal effect, mortality criterion) [1]: D (Mortality 79-50%) | Test Example 3 (insecticidal effect, mortality criterion) [2]: A (Mortality 100%) | Test Example 1 (insecticidal effect, mortality criterion) [3]: A (Mortality 100%)

CSCC(C)(C)NC(=O)c1c(C(=O)Nc2ccc(C(C(F)(F)F)C(F)(F)F)nc2C)cccc1[N+](=O)[O-] [8-7]
Test Example 2 (insecticidal effect, mortality criterion) [1]: C (Mortality 89-80%) | Test Example 3 (insecticidal effect, mortality criterion) [2]: E (Mortality 49% or less) | Test Example 1 (insecticidal effect, mortality criterion) [3]: A (Mortality 100%)

Cc1nc(C(C(F)(F)F)C(F)(F)F)ccc1NC(=O)c1cccc([N+](=O)[O-])c1C(=O)NC(C)(C)C[S+](C)[O-] (stereo not drawn) [8-8]
Test Example 2 (insecticidal effect, mortality criterion) [1]: E (Mortality 49% or less) | Test Example 3 (insecticidal effect, mortality criterion) [2]: E (Mortality 49% or less) | Test Example 1 (insecticidal effect, mortality criterion) [3]: A (Mortality 100%)

Cc1nc(C(C(F)(F)F)C(F)(F)F)ccc1NC(=O)c1cccc([N+](=O)[O-])c1C(=O)NC(C)(C)CS(C)(=O)=O [8-9]
Test Example 2 (insecticidal effect, mortality criterion) [1]: D (Mortality 79-50%) | Test Example 3 (insecticidal effect, mortality criterion) [2]: E (Mortality 49% or less) | Test Example 1 (insecticidal effect, mortality criterion) [3]: A (Mortality 100%)

Cc1nc(C(C(F)(F)F)C(F)(F)F)ccc1NC(=O)c1cccc(I)c1C(=O)NC(C)C [8-10]
Test Example 2 (insecticidal effect, mortality criterion) [1]: A (Mortality 100%) | Test Example 3 (insecticidal effect, mortality criterion) [2]: A (Mortality 100%) | Test Example 1 (insecticidal effect, mortality criterion) [3]: A (Mortality 100%)

CSCC(C)(C)NC(=O)c1c(I)cccc1C(=O)Nc1ccc(C(C(F)(F)F)C(F)(F)F)nc1C [8-11]
Test Example 2 (insecticidal effect, mortality criterion) [1]: A (Mortality 100%) | Test Example 3 (insecticidal effect, mortality criterion) [2]: A (Mortality 100%) | Test Example 1 (insecticidal effect, mortality criterion) [3]: A (Mortality 100%)

Cc1nc(C(C(F)(F)F)C(F)(F)F)ccc1NC(=O)c1cccc(I)c1C(=O)NC(C)(C)C[S+](C)[O-] (stereo not drawn) [8-12]
Test Example 2 (insecticidal effect, mortality criterion) [1]: A (Mortality 100%) | Test Example 3 (insecticidal effect, mortality criterion) [2]: A (Mortality 100%) | Test Example 1 (insecticidal effect, mortality criterion) [3]: A (Mortality 100%)

Cc1nc(C(C(F)(F)F)C(F)(F)F)ccc1NC(=O)c1cccc(I)c1C(=O)NC(C)(C)CS(C)(=O)=O [8-13]
Test Example 2 (insecticidal effect, mortality criterion) [1]: A (Mortality 100%) | Test Example 3 (insecticidal effect, mortality criterion) [2]: A (Mortality 100%) | Test Example 1 (insecticidal effect, mortality criterion) [3]: A (Mortality 100%)

CSCC(C)NC(=O)c1c(I)cccc1C(=O)Nc1ccc(C(C(F)(F)F)C(F)(F)F)nc1C (stereo not drawn) [8-14]
Test Example 2 (insecticidal effect, mortality criterion) [1]: A (Mortality 100%) | Test Example 3 (insecticidal effect, mortality criterion) [2]: A (Mortality 100%) | Test Example 1 (insecticidal effect, mortality criterion) [3]: A (Mortality 100%)

CCNC(=O)OCC(C)NC(=O)c1c(I)cccc1C(=O)Nc1ccc(C(C(F)(F)F)C(F)(F)F)nc1C (stereo not drawn) [8-26]
Test Example 2 (insecticidal effect, mortality criterion) [1]: D (Mortality 79-50%) | Test Example 3 (insecticidal effect, mortality criterion) [2]: A (Mortality 100%) | Test Example 1 (insecticidal effect, mortality criterion) [3]: A (Mortality 100%)
